Data taken from US11884675B2, “Heterocyclic compounds as triggering receptor expressed on myeloid cells 2 agonists and methods of use” (AMGEN INC., priority 2020, dated 2024).
pEC50: −log10 of the molar value.

molecular target: hTREM2 (Homo sapiens, UniProt Q9NZC2); test: TREM2 activity by cellular Syk phosphorylation (AlphaScreen/AlphaLISA) in TREM2/DAP12-HEK cells, used for Examples 1-305; type: cell-based; set-up: expressed in transfected cells; conditions: HEK293 Cells
Procedure, shortened: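 Single-cell-cloned HEK293 cells overexpressing TREM2 and DAP12, seeded 20 h, exposed to test articles (1% final DMSO) for 45 min at room temperature. Lysates read for phospho-Syk (Tyr525/526) vs total Syk by AlphaScreen. Signal normalised as percent of control between isotype IgG and 100 nM anti-TREM2 antibody; 4-parameter logistic fit.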

Chain of hTREM2 (Q9NZC2 19-230): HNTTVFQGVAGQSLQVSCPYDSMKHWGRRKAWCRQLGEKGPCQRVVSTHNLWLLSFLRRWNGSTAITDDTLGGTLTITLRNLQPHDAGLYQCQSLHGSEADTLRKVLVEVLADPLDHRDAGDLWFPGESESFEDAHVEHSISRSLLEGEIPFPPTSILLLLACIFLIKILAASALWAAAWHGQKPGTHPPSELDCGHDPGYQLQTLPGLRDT
Chain of hTREM2 (O43914 22-113 partner): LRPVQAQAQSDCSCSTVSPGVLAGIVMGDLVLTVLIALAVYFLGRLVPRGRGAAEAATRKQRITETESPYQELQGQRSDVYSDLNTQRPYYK

Row | SMILES | pEC50 | hTREM2 Emax
1 | Cc1cnc2c(-c3ccc(Cl)cc3F)nc([C@@H]3CCO[C@H](c4cnn(C)c4)C3)cc2n1 [Example 248, 5-(4-chloro-2-fluorophenyl)-2-methyl-7-((2S,4R)-2-(1-methyl-1H-pyrazol-4-yl)tetrahydro-2H-pyran-4-yl)pyrido[3,4-b] pyrazine] | 5.52 to 6.30 | +++ (Emax>150 and ≤250)
2 | Cc1ccc2c(C3CCC(F)(F)CC3)nc(N3CCO[C@@H](c4cnn(C)c4)C3)nc2n1 [Example 141, 4-(4,4-difluorocyclohexyl)-7-methyl-2-((2S)-2-(1-methyl-1H-pyrazol-4-yl)-4-morpholinyl)pyrido [2,3-d]pyrimidine] | 6.30 to 7.30 | ++ (Emax>100 and ≤150)
3 | Cc1cc([C@H]2C[C@@H](c3cc4nc(C)c(C)nc4c(-c4ccc(Cl)cc4F)n3)CCO2)ccn1 (single isomer, unassigned) [Example 218] | ≥ 7.30 | +++ (Emax>150 and ≤250)
4 | Cn1cc([C@H]2CN(c3cc4nccnc4c(-c4ccc(Cl)cc4F)n3)CCO2)cn1 [Example 233, (S)-4-(5-(4-chloro-2-fluorophenyl)pyrido[3,4-b]pyrazin-7-yl)-2-(1-methyl-1H-pyrazol-4-yl)morpholine] | 4.00 to 5.52 | +++ (Emax>150 and ≤250)
5 | CCN1Cc2c(cc(N3CCO[C@@H](c4cnn(C)c4)C3)nc2-c2ccc(Cl)cc2F)C1=O [Example 121, 4-(4-chloro-2-fluorophenyl)-2-ethyl-6-((2S)-2-(1-methyl-1H-pyrazol-4-yl)-4-morpholinyl)-2,3-dihydro-1H-pyrrolo[3,4-c]pyridin-1-one] | 6.30 to 7.30 | ++++ (Emax>250)
6 | Cc1cnc2c(-c3ccc(Cl)cc3F)nc(N3CCO[C@@H](c4cnn(C)c4)C3)cc2n1 [Example 73, 5-(4-chloro-2-fluorophenyl)-2-methyl-7-((2S)-2-(1-methyl-1H-pyrazol-4-yl)-4-morpholinyl)pyrido[3,4-b]pyrazine] | 6.30 to 7.30 | ++++ (Emax>250)
7 | Cc1cc([C@H]2CN(c3nc(CCC(F)(F)F)c4nc(C)c(C)nc4n3)CCO2)ccn1 [Example 41, 6,7-dimethyl-2-((2S)-2-(2-methyl-4-pyridinyl)-4-morpholinyl)-4-(3,3,3-trifluoropropyl)pteridine] | 6.30 to 7.30 | + (Emax>45 and ≤100)
8 | Cc1cnc2c(-c3ccc(Cl)cc3F)nc(N3CCO[C@@H](c4cnn(C5CC5)c4)C3)nc2n1 [Example 2, 4-(4-chloro-2-fluorophenyl)-2-((2S)-2-(1-cyclopropyl-1H-pyrazol-4-yl)-4-morpholinyl)-7-methylpteridine] | ≥ 7.30 | +++ (Emax>150 and ≤250)
9 | Cc1nc2nc(N3CCO[C@@H](c4cnn(C)c4)C3)nc([C@H]3CCC(C)(C)C3)c2nc1C [Example 302, (S)-4-(4-((S)-3,3-dimethylcyclopentyl)-6,7-dimethylpteridin-2-yl)-2-(1-methyl-1H-pyrazol-4-yl)morpholine] | 6.30 to 7.30 | + (Emax>45 and ≤100)
10 | Cc1nc2nc(N3CCO[C@@H](c4cnn(C5CC5)c4)C3)nc(C34CC(C(F)(F)F)(C3)C4)c2nc1C [Example 64, 2-((2S)-2-(1-cyclopropyl-1H-pyrazol-4-yl)-4-morpholinyl)-6,7-dimethyl-4-(3-(trifluoromethyl)bicyclo[1.1.1]pentan-1-yl)pteridine] | ≥ 7.30 | +++ (Emax>150 and ≤250)
11 | Cc1ccc2c(n1)nc(N1CCO[C@@H](c3cnn(C4CC4)c3)C1)nc2[C@H]1C[C@H](C(F)(F)F)C1 [Example 98, 2-((2S)-2-(1-cyclopropyl-1H-pyrazol-4-yl)-4-morpholinyl)-7-methyl-4-(trans-3-(trifluoromethyl)cyclobutyl)pyrido[2,3-d]pyrimidine] | 6.30 to 7.30 | ++ (Emax>100 and ≤150)
12 | CCc1ccc2c(-c3ccc(Cl)cc3F)nc(N3CCO[C@@H](c4cnn(C)c4)C3)cc2n1 [Example 238, (S)-4-(5-(4-chloro-2-fluorophenyl)-2-ethyl-1,6-naphthyridin-7-yl)-2-(1-methyl-1H-pyrazol-4-yl)morpholine] | 4.00 to 5.52 | + (Emax>45 and ≤100)
13 | Cc1nc2nc(N3CCC(F)(F)[C@@H](c4cnn(C)c4)C3)nc(-c3ccc(Cl)cc3F)c2nc1C (single isomer, unassigned) [Example 123] | ≥ 7.30 | +++ (Emax>150 and ≤250)
14 | COc1cc([C@H]2CN(c3cc4nc(C)cnc4c(-c4ccc(Cl)cc4F)n3)CCO2)ccn1 [Example 78, 5-(4-chloro-2-fluorophenyl)-7-((2S)-2-(2-methoxy-4-pyridinyl)-4-morpholinyl)-2-methylpyrido[3,4-b]pyrazine] | 6.30 to 7.30 | +++ (Emax>150 and ≤250)
15 | Cc1cnc2c(n1)nc(N1CCO[C@@H](c3cnn(C)c3)C1)nc2[C@H]1C[C@@H](C(F)(F)F)C1 [Example 274, (S)-2-(1-methyl-1H-pyrazol-4-yl)-4-(7-methyl-4-((1s,3R)-3-(trifluoromethyl)cyclobutyl)pteridin-2-yl)morpholine] | 4.00 to 5.52 | ++ (Emax>100 and ≤150)
16 | Cc1ccc2c(-c3ccc(Cl)cc3F)nc(N3CCO[C@H](c4cnc(C)nc4)C3)nc2n1 (single isomer, unassigned) [Example 89] | 5.52 to 6.30 | +++ (Emax>150 and ≤250)

Row | SMILES | pEC50 | hTREM2 Emax
17 | Cc1cc([C@@H]2CN(c3cc4nc(C)ccc4c(-c4ccc(Cl)cc4F)n3)CCO2)ccn1 [Example 240, (R)-4-(5-(4-chloro-2-fluorophenyl)-2-methyl-1,6-naphthyridin-7-yl)-2-(2-methylpyridin-4-yl)morpholine] | 4.00 to 5.52 | ++++ (Emax>250)
18 | Cc1cc2c(OC[C@H]3CC3(C)C)nc(N3CCO[C@@H](c4cnn(C)c4)C3)nc2nc1C [Example 111, 4-(((1S)-2,2-dimethylcyclopropyl)methoxy)-6,7-dimethyl-2-((2S)-2-(1-methyl-1H-pyrazol-4-yl)-4-morpholinyl)pyrido[2,3-d]pyrimidine] | 5.52 to 6.30 | + (Emax>45 and ≤100)
19 | Cc1cnc2c(-c3ccc(Cl)cc3F)nc([C@H]3CCO[C@@H](c4cnc(C)nc4)C3)nc2n1 (single isomer, unassigned) [Example 173] | ≥ 7.30 | +++ (Emax>150 and ≤250)
20 | Cc1ccc(-c2nc([C@@H]3CCO[C@@H](c4ccnc(C)c4)C3)nc3nc(C)c(C)nc23)c(F)c1 [Example 285, 4-(2-fluoro-4-methylphenyl)-6,7-dimethyl-2-((2R,4R)-2-(2-methylpyridin-4-yl)tetrahydro-2H-pyran-4-yl)pteridine] | 6.30 to 7.30 | ++++ (Emax>250)
21 | Cc1nc2nc(N3CCO[C@@H](c4cnn(C)c4)C3)nc([C@H]3C[C@H](C(F)F)C3)c2nc1C [Example 45, 4-(trans-3-(difluoromethyl)cyclobutyl)-6,7-dimethyl-2-((2S)-2-(1-methyl-1H-pyrazol-4-yl)-4-morpholinyl)pteridine] | 6.30 to 7.30 | ++ (Emax>100 and ≤150)
22 | Cc1cc2c(-c3ccc(F)cc3F)nc([C@@H]3CCO[C@@H](c4cnn(C)c4)C3)nc2nc1C [Example 267, 4-(2,4-difluorophenyl)-6,7-dimethyl-2-((2R,4R)-2-(1-methyl-1H-pyrazol-4-yl)tetrahydro-2H-pyran-4-yl)pyrido[2,3-d]pyrimidine] | 5.52 to 6.30 | ++ (Emax>100 and ≤150)
23 | Cc1nc2nc(N3CCO[C@@H](c4cnn(C)c4)C3)nc(N3CC(F)C3)c2nc1C [Example 29, 4-(3-fluoro-1-azetidinyl)-6,7-dimethyl-2-((2S)-2-(1-methyl-1H-pyrazol-4-yl)-4-morpholinyl)pteridine] | 4.00 to 5.52 | 
24 | Cc1nc2nc(N3CCO[C@@H](c4cnn(C)c4)C3)nc(-c3ccc(Cl)cc3F)c2cc1Cl [Example 116, 6-chloro-4-(4-chloro-2-fluorophenyl)-7-methyl-2-((2S)-2-(1-methyl-1H-pyrazol-4-yl)-4-morpholinyl)pyrido[2,3-d]pyrimidine] | ≥ 7.30 | +++ (Emax>150 and ≤250)
25 | Cc1ncc([C@H]2C[C@@H](c3nc(-c4ccc(Cl)cc4F)c4nc(C)c(C)nc4n3)CCO2)cn1 (single isomer, unassigned) [Example 209] | 6.30 to 7.30 | +++ (Emax>150 and ≤250)
26 | Cc1cc([C@H]2CN(c3nc4nc(C)c(C)cc4c([C@H]4C[C@H](C(F)(F)F)C4)n3)CCO2)cnn1 (single isomer, unassigned) [Example 114] | ≥ 7.30 | +++ (Emax>150 and ≤250)
27 | Cc1nc2nc(N3CCO[C@@H](c4cnn(C)c4)C3)nc(C3=CCCC3)c2nc1C [Example 128, 4-(1-cyclopenten-1-yl)-6,7-dimethyl-2-((2S)-2-(1-methyl-1H-pyrazol-4-yl)-4-morpholinyl)pteridine] | 5.52 to 6.30 | + (Emax>45 and ≤100)
28 | Cc1nc2nc(N3CCO[C@@H](c4cnn(C)c4)C3)nc(N3CCC(C)(C)C3)c2nc1C [Example 72, 4-(3,3-dimethyl-1-pyrrolidinyl)-6,7-dimethyl-2-((2S)-2-(1-methyl-1H-pyrazol-4-yl)-4-morpholinyl)pteridine] | 5.52 to 6.30 | + (Emax>45 and ≤100)
29 | Cc1cnc2nc(N3CCO[C@@H](c4cnn(C)c4)C3)cc(-c3ccc(Cl)cc3F)c2n1 [Example 158, 8-(4-chloro-2-fluorophenyl)-2-methyl-6-((2S)-2-(1-methyl-1H-pyrazol-4-yl)-4-morpholinyl)pyrido [2,3-b]pyrazine] | 6.30 to 7.30 | +++ (Emax>150 and ≤250)
30 | Cc1nc2nc(N3CCO[C@@H](c4cnn(C)c4)C3)nc(N3CCC[C@@H](F)C3)c2nc1C (single isomer, unassigned) [Example 69] | 5.52 to 6.30 | + (Emax>45 and ≤100)
31 | Cc1cnc2c(C34CC(C(F)(F)F)(C3)C4)nc(N3CCO[C@@H](c4cnn(C5CC5)c4)C3)nc2n1 [Example 231, (S)-2-(1-cyclopropyl-1H-pyrazol-4-yl)-4-(7-methyl-4-(3-(trifluoromethyl)bicyclo[1.1.1]pentan-1-yl)pteridin-2-yl)morpholine] | ≥ 7.30 | +++ (Emax>150 and ≤250)
